Data published in US20090076092A1, “METHOD FOR DISRUPTING REPRODUCTIVE PERFORMANCE OF ARTHROPODS” (priority 2006, published 2009).

Key:
housefly = assay: Dose-finding test for sub-lethal dose on housefly; type: in vivo, Musca domestica; conditions: probit analysis extrapolation from preliminary dose-response curves at 50, 100, 500 and 1000 ppm
Text: (§1) The sub-lethal concentrations or doses used in the various tests for the specific pest species and populations tested in the context of the present invention were estimated from multiple-rate, dose-finding tests to determine the control rates and activity break rates. […] Therefore, depending on the target pest species, either the LC50 or a suitable concentration between LC50 and LC20 was selected as the sub-lethal dose. The specific procedures used to select the respective doses are described in each Test.
(§2) The LC20 sub-lethal dose of Compound 2 on the housefly was estimated to be 2 ppm using probit analysis extrapolation based on the preliminary dose-response curves obtained at concentrations of 50, 100, 500 and 1000 ppm. Two treatments consisted of Compound 2 at 2 ppm and a control without test compound. Each treatment had 10 replicates.

[1] = test system: housefly, Musca domestica (L.); assay: Test A: reproductive performance of adult houseflies after spray at sub-lethal concentration; type: in vivo; conditions: 2 ppm spray of adults; totaled on the 8th day after treatment
Text: For evaluating housefly, Musca domestica (L.), each test unit consisted of a pair of virgin adult female and male houseflies of similar age (±1 day). To obtain the adult flies used in the study, pupae of approximately the same age (±1 day) were separated by sex, and placed in separate containers until adults emerged.
as §2
After emergence, the adult houseflies were placed in a meshed cage and were sprayed with test solutions using a belt sprayer. Test solutions were applied using a compressed air-propelled (moving) belt sprayer equipped with an 8001E Tee Jet flat fan spray nozzle. The nozzles were positioned at about 20 cm above the test unit, and calibrated at 276 kPa to deliver volumes equivalent to 500 L/ha. […]
Observations of the number of eggs laid per adult female were made daily for 7 days. The cotton wicks containing eggs were removed daily and counted, and then kept in a growth chamber at 26° C., 75% relative humidity and 16 hours of light per day to allow egg hatching and emergence of neonates. […]

diamondback moth = assay: Previous laboratory studies of diamondback moth mortality; type: in vivo; conditions: Plutella xylostella, read-out: mortality of the diamondback moth (LC20)
Text: as §1
(§3) In addition, a control without test compound was included.

[2] = test system: diamondback moth (Plutella xylostella); assay: Test G: number of eggs (fecundity) of adult diamondback moth; type: in vivo; conditions: 10 ppm, control itself gave very few eggs
Text: For evaluating the reproductive performance effects on diamondback moth (Plutella xylostella), a minimum of 120 larvae of diamondback moth of each sex were used. Male and female individuals of late instar larvae were separated and caged in individual containers containing Chinese kale. Male diamondback moths were identified by a white dot on the abdomen at the late instar larval stage. When pupae emerged, each pupa was caged separately until it emerged as adult.
as §3
Groups of 40 newly emerged (<24 hours) moths of the same sex were placed inside a meshed cage. The caged adult moths were then sprayed with the test solution, using a CO2 backpack sprayer at 500 L/Ha. For the control treatment, the adults were sprayed with water at a similar spray volume. The groups of treated individuals were then transferred into a clean container with a source of adult diet (i.e. a cotton wick soaked in 10% sucrose solution). Separate containers were used for different groups of treated insects. One day after treatment, the numbers of live, moribund and dead adults were counted. One live treated male and one live treated female were placed together in a copulation cage, which was a 300 mL clear plastic cup covered with nylon screen supplied with an adult diet source of 10% sucrose solution.
Each pair of virgin adults was a replicate, and each treatment consisted of 10 to 20 replicates. Every day each pair of moths was moved to a new cup supplied with a diet of 10% sucrose solution.
The number of eggs laid per female moth was counted daily during the two days when the female moths actively produced viable eggs. The results, listed in Table G, indicate that no meaningful comparative information can be inferred, as the even the Control provided very few eggs per female moth; this indicates a systemic reproduction problem from unknown causes. However, had the Control worked, we expect to see the reproductive performance effects on diamondback moth.

[3] = test system: green peach aphid (Myzus persicae Sulzer); assay: Test B: nymph production by green peach aphid after 24 hours exposure on treated radish plants; type: in vivo; conditions: for Living (%) / On plant (%): 1 DAT; for Living (%): all aphids alive 24 h after treatment; for On plant (%): all aphids on the treated plant
Procedure: For evaluating reproductive performance effects on green peach aphid (Myzus persicae Sulzer), each test unit consisted of a radish plant grown in a 6 cm×6 cm square pot infested with a mixed population (nymphs and adults) of green peach aphids from a laboratory-reared culture. Each plant was infested with about 100 aphids. Test solutions were prepared and sprayed on the test plants (2 plants per treatment) as described for TEST A. Treatments included Compound 1 at 100 and 500 ppm, Compound 2 at 4 and 6 ppm, and a control without test compound.
Aphids were kept on the treated plants for 24 hours, and then only adult aphids staying on the treated plant were transferred to untreated radish plants grown singly in a 6 cm×6 cm square pots. One test unit or one replicate consisted of a single adult aphid on a radish plant in a pot. The number of nymphs in each replicate was counted 4 and 6 days after treatment. At the higher concentration of each test compound a total of 45 replicates were used, and at the lower concentration of each test compound a total of 30 replicates were used. In addition, prior to transferring aphids singly to the untreated radish plants one day after treatment (1 DAT), the total number of aphids living and those remaining on the treated plant were counted.
The results are listed in Table B. Square-root transformation was done on the number of nymphs produced per adult (female) aphid, and the data were analyzed using analysis of variance (ANOVA) and Fisher's Least Significant Difference (LSD) tests for separation of means.

adult thrips = assay: Previous study of adult thrips mortality; type: in vivo, Frankliniella occidentalis; conditions: read-out: adult mortality
Text: as §1
Thus, the sub-lethal concentration of Compound 2 was selected to be 10 ppm in the test treatments. Test solutions were prepared by diluting with water to the selected concentration. Treatments included Compound 2 at 10 ppm as well as a control without test compound.

## CNC(=O)c1cc(C#N)cc(C)c1NC(=O)c1cc(Br)nn1-c1ncccc1Cl [Compound 2, 3-bromo-1-(3-chloro-2-pyridinyl)-N-[4-cyano-2-methyl-6-[(methylamino)-carbonyl]phenyl]-1H-pyrazole-5-carboxamide]
housefly
  LC20 sub-lethal dose: 2 ppm
[1]
  Mean number of neonates per female: 16.7
Diamondback moth
  mortality at 10 ppm: ~20%
[2]; 1 DAT
  No. of eggs per female moth: 0
[2]; 2 DAT
  No. of eggs per female moth: 0.2
[3]; 4 and 6 ppm, one day after treatment
  living aphids that did not stay on the plant: 28-48%
[3]; 4 ppm
  Living (%): 97.6%
  On plant (%): 72.0%
[3]; 4 ppm, 6 DAT, per adult
  No. of nymphs (mean ± SE): 6.1 ± 0.6 a
[3]; 6 ppm
  Living (%): 82.3%
  On plant (%): 51.1%
Adult thrips
  mortality at 10 ppm: < 50%
